From US20020034767A1, “Compositions and methods for modulating the activity of G protein-coupled receptor kinases GRK5 and GRK6” (priority 1993, published 2002)
“And” between values parts separate entries of the source, which are not always exact repeats. Identical values can stand only once.

Tests used:
GRK6 = biological target: T1, GRK6 (Homo sapiens, UniProt P43250); test: GRK6 phosphorylation of rhodopsin; type: biochemical; settings: for effect on GRK6 activity: in the presence of Mg2+; for IC50: purified GRK6, read-out: IC50 for inhibiting GRK6; for fold less effective as inhibitor of GRK6 compared to GRK5: GRK6 versus GRK5
T1 construct: The presence of the full length GRK6 cDNA within the genome of the recombinant baculovirus was confirmed; made in house; host or cells: Sf9 insect cells (baculovirus, pBacPAK1)

GRK5 [1] = biological target: T2, GRK5 (Homo sapiens, UniProt P34947); test: GRK5 phosphorylation of rhodopsin (receptor phosphorylation); type: biochemical; settings: purified GRK5; read-out: IC50 for inhibiting GRK5
T2 construct: The GRK5 ORF was initially excised by restriction digestion of the full length clone pGRK5 using NaeI and SmaI; made in house; host or cells: Sf9 insect cells (baculovirus, pBacPAK1)

GRK5 [2] = biological target: T2, GRK5; test: as above; type: biochemical; settings: for reversal of heparin inhibition of GRK5: in presence of heparin
Experimental: Rod outer segments (ROS) were prepared in accordance with methods known to those skilled in the art. Rhodopsin kinase free membranes were prepared by suspending the ROS in 50 mM Tris-HCl, pH 8.0, 5 mM EDTA, 5M urea and sonicating. The urea treated ROS were washed several times by centrifugation and resuspended in 50 mM Tris-HCl, pH 7.5 at a protein concentration of ˜1 mg/ml. Phosphorylation reactions contained 5 μg of total protein from the Sf9 cell supernatants expressing either GRK5 or βARK, urea treated ROS (80 pmol rhodopsin), 20 mM Tris-HCl, pH 7.5, 2 mM EDTA, 6 mM MgCl2 and 0.1 mM [γ-^32P] ATP, in a total reaction volume of 30 μl. When the effect of G protein βγ subunits was assessed, the reactions also contained 0.25 mM dithiothreitol, 0.01% Lubrol and 62 mM NaCl with or without 100 nM βγ subunits. Reactions were incubated at 30° C. for 15 minutes and then stopped by the addition of 50 μl of SDS sample buffer. Samples were electrophoresed on a 10% homogeneous SDS polyacrylamide gel by the method of Laemmli which is well known to those skilled in the art. Gels were dried and autoradiographed at room temperature for 30-120 minutes. The rhodopsin bands in the gel were then cut and counted in a scintillation counter.

GRK5 [3] = biological target: T2, GRK5; test: GRK5 autophosphorylation; type: biochemical
rhodopsin kinase = biological target: T3, rhodopsin kinase (Bos taurus, UniProt P28327); settings: cited from earlier work
T3 sequence (P28327 1-561): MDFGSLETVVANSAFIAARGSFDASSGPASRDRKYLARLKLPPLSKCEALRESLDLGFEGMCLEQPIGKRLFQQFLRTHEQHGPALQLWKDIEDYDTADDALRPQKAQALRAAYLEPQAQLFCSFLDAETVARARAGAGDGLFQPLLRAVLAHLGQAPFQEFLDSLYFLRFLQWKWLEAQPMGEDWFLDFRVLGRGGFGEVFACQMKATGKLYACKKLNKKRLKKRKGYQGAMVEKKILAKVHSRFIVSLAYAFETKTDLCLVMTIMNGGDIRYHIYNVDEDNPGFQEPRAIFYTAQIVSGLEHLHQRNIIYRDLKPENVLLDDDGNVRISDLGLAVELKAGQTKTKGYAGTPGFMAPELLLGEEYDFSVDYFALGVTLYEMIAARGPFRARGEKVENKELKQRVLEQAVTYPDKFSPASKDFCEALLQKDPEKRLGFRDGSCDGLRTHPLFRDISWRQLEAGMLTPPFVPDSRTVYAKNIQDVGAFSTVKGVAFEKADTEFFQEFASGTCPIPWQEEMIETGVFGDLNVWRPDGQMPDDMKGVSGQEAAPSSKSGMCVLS

βARK = biological target: T4, βARK (Bos taurus, UniProt P21146); settings: cited from earlier work
T4 sequence (P21146 1-689): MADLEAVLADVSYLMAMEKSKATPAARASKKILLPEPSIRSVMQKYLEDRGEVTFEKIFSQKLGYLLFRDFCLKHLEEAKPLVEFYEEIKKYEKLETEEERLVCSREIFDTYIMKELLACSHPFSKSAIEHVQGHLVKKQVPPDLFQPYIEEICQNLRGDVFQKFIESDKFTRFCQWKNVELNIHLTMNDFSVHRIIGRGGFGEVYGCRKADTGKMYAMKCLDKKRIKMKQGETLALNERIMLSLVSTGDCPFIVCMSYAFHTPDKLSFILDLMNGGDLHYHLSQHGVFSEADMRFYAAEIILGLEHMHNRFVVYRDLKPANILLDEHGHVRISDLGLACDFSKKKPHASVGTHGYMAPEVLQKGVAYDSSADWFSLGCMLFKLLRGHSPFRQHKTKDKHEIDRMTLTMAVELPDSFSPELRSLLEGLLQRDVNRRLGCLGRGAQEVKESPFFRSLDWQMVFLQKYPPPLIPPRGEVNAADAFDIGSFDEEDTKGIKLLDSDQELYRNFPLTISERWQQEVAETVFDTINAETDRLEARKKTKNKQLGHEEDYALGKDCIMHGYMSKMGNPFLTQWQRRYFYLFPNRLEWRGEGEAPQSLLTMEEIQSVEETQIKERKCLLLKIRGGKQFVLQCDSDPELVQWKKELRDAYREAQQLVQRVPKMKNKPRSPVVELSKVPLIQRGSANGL

casein kinase II = casein kinase II (Homo sapiens, UniProt P67870+P68400); settings: cited from earlier work
Chain of casein kinase II (P68400 whole entry): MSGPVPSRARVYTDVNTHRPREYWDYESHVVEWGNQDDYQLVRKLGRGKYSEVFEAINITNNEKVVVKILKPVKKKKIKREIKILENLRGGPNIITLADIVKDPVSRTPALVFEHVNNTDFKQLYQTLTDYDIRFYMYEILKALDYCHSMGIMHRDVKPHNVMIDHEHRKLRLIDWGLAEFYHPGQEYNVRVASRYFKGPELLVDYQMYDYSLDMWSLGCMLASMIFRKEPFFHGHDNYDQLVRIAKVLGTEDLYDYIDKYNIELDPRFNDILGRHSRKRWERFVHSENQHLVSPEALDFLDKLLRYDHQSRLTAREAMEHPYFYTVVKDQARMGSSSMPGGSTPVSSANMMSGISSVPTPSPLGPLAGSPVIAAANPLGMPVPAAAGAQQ
Chain of casein kinase II (P67870 whole entry): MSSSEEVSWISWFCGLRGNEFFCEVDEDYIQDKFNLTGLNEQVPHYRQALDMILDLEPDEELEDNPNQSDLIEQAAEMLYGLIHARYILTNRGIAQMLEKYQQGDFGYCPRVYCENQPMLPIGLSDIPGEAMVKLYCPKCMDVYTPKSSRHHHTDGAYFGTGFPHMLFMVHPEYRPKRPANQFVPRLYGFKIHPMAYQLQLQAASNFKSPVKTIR

T1 sequence (P43250 whole entry): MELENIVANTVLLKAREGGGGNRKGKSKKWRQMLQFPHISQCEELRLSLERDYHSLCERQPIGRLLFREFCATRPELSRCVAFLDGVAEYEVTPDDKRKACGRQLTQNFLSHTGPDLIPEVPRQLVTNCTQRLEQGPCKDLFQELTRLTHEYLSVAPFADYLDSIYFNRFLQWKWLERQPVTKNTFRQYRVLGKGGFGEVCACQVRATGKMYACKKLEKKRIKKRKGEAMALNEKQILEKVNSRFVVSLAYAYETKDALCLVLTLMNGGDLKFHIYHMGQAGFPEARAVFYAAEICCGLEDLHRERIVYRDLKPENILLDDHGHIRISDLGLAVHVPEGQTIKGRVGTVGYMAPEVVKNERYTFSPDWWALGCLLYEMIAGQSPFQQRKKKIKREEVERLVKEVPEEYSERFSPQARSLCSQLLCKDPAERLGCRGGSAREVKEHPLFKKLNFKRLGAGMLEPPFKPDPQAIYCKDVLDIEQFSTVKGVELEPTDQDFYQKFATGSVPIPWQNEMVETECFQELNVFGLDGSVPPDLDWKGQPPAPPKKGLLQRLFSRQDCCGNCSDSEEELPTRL
T2 sequence (P34947 whole entry): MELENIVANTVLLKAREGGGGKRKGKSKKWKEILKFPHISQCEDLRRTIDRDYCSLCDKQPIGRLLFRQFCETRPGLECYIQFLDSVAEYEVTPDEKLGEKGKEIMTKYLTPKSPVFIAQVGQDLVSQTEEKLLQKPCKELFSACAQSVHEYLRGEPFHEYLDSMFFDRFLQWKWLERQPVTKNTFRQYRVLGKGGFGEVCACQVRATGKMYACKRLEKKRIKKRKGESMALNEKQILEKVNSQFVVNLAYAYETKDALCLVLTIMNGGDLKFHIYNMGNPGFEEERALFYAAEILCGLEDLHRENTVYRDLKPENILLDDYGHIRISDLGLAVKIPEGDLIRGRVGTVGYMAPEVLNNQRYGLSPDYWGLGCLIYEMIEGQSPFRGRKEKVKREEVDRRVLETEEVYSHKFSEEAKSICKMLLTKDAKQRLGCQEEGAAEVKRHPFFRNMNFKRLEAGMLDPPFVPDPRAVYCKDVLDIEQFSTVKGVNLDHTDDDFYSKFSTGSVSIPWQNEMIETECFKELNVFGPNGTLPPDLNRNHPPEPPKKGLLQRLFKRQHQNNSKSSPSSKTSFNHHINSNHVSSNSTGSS

## [Ca+2] [Ca^2+]
GRK6
  effect on GRK6 activity: inhibited

## CC1CNCCN1S(=O)(=O)c1cccc2cnccc12 (stereo not drawn) [H-7]
GRK5 [1]
  IC50: ~170 µM

## Cl [NaCl]
GRK5 [2]; IC50 for inhibiting GRK5 (receptor phosphorylation), purified GRK5
  IC50: ~60000 µM and 58000 µM
GRK5 [3]
  IC50: ~70000 µM

## [Zn+2] [Zn^2+]
GRK6
  effect on GRK6 activity: inhibited

## NCCCCNCCCN [spermidine]
Rhodopsin kinase
  effect on rhodopsin kinase: activators
βARK
  inhibition of βARK: weak inhibitors
GRK5 [2]
  reversal of heparin inhibition of GRK5: effectively reversed
GRK5 [2]; optimal concentrations
  activation of GRK5: ~1.5 fold
Casein kinase II
  effect on casein kinase: activators
GRK6; optimal concentration range 0.1 to 0.5 mM
  enhancement of GRK6 activity: ~1.4 fold

## NCCCNCCCCNCCCN [spermine]
Rhodopsin kinase
  effect on rhodopsin kinase: activators
βARK
  inhibition of βARK: weak inhibitors
GRK5 [2]
  reversal of heparin inhibition of GRK5: effectively reversed
GRK5 [2]; optimal concentrations
  activation of GRK5: ~1.8 fold
Casein kinase II
  effect on casein kinase: activators
GRK6; optimal concentration range 0.01 to 0.1 mM
  elevation of GRK6 phosphorylation of rhodopsin: ~1.5 fold

## dextran sulfate
GRK5 [1]
  IC50: ~0.0006 µM
GRK6
  IC50: 0.007 µM

## heparin
Rhodopsin kinase
  IC50: ~200 µM
GRK5 [1]
  IC50: ~0.001 µM
GRK5 [3]; concentration of 10 μM
  inhibition of GRK5 autophosphorylation: does not inhibit
GRK6
  IC50: ~0.015 µM

## polyaspartic acid
GRK6
  fold less effective as inhibitor of GRK6 compared to GRK5: ~6 fold
  IC50: 0.487 µM

## polyglutamic acid
GRK6
  fold less effective as inhibitor of GRK6 compared to GRK5: ~16 fold
  IC50: 0.4 µM

## polylysine
Rhodopsin kinase
  effect on rhodopsin kinase: activators
βARK
  inhibition of βARK: weak inhibitors
GRK5 [2]
  reversal of heparin inhibition of GRK5: effectively reversed
GRK5 [2]; optimal concentration of 10 μM
  activation of GRK5: ~2.6 fold
Casein kinase II
  effect on casein kinase: activators
GRK6; optimal range 1 to 10 μM
  increase in GRK6 phosphorylation: ~2.7 fold
